Key:
[1] = tested on: Mycobacterium tuberculosis; test: Antituberculosis activity against Mycobacterium tuberculosis H37Rv assessed as parasite growth inhibition at 25 ug/ml after 4 days by microplate alamar blue assay; format: functional; details: 96 h, read-out: GI
[2] = tested on: Enterococcus faecalis; test: Antibacterial activity against Enterococcus faecalis ATCC 29212 by radial diffusion assay; format: functional
[3] = tested on: Salmonella enterica subsp. enterica; test: Antibacterial activity against Salmonella Typhimurium EG10627 by radial diffusion assay; format: functional, Salmonella enterica subsp. enterica serovar Typhimurium
[4] = tested on: Salmonella enterica subsp. enterica; test: Antibacterial activity against Salmonella Typhimurium MS 7953 by radial diffusion assay; format: functional, Salmonella enterica subsp. enterica serovar Typhimurium
[5] = tested on: Mycobacterium tuberculosis; test: Antituberculosis activity against Mycobacterium tuberculosis H37Rv assessed as parasite growth inhibition at 50 ug/ml after 4 days by microplate alamar blue assay; format: functional; details: 96 h, read-out: GI
[6] = tested on: Escherichia coli; test: Antibacterial activity against Escherichia coli ATCC 25922 by radial diffusion assay; format: functional
[7] = tested on: Mycobacterium tuberculosis; test: Antituberculosis activity against Mycobacterium tuberculosis H37Rv assessed as parasite growth inhibition at 100 ug/ml after 4 days by microplate alamar blue assay; format: functional; details: 96 h, read-out: GI
[8] = tested on: Salmonella enterica subsp. enterica; test: Antibacterial activity against Salmonella Typhimurium ATCC 14028s by radial diffusion assay; format: functional, Salmonella enterica subsp. enterica serovar Typhimurium
[9] = tested on: Staphylococcus aureus; test: Antibacterial activity against Staphylococcus aureus ATCC 65380 by radial diffusion assay; format: functional
[10] = Antiplatelet activity in rabbit platelets assessed as inhibition of PAF-induced platelet aggregation treated 5 mins before PAF challenge; format: functional, cell-based; details: Oryctolagus cuniculus

| Compound | inhibition of growth at 25 µg/mL [1] | growth inhibition (GI) [2] | growth inhibition (GI) [3] | growth inhibition (GI) [4] | inhibition of growth at 50 µg/mL [5] | growth inhibition (GI) [6] | inhibition of growth at 100 µg/mL [7] | growth inhibition (GI) [8] | growth inhibition (GI) [9] | IC50 [10] |
| --- | --- | --- | --- | --- | --- | --- | --- | --- | --- | --- |
| NNC(=O)c1ccncc1 [ISONIAZID] | 94.2% |  |  |  |  |  |  |  |  |  |
| C=C1C[C@@]23CC[C@H]4[C@@](C)(CCC[C@@]4(C)C(=O)O)[C@@H]2CC[C@@H]1C3 [KAURENOIC ACID] | 88.6% | <30% | <30% | <30% | 91.3% | <30% | 94.2% | <30% | <30% |  |
| CO[C@H]1/C=C/O[C@@]2(C)Oc3c(C)c(O)c4c(O)c(c(/C=N/N5CCN(C)CC5)c(O)c4c3C2=O)NC(=O)/C(C)=C\C=C\[C@H](C)[C@H](O)[C@@H](C)[C@@H](O)[C@@H](C)[C@H](OC(C)=O)[C@@H]1C [RIFAMPIN] | 97.6% |  |  |  |  |  |  |  |  |  |
| C[C@@H]1C(=O)O[C@H]2[C@H](O)[C@@]34[C@H]5C[C@@H](C(C)(C)C)[C@]36[C@@H](OC(=O)[C@@H]6O)O[C@@]4(C(=O)O5)[C@@]12O [GINKOLIDE B] |  |  |  |  |  |  |  |  |  | 0.93 µM |
| C=CCC1=C[C@]2(OC)C(=O)[C@@](OC)(C1=O)[C@H](c1cc(OC)c3c(c1)OCO3)[C@H]2C [CINERIN A] | 2.5% | <30% | <30% | <30% | 7.2% | <30% | 8.1% | <30% | <30% | 16.8 µM |
| C=CCC1=C[C@@]2(OC)[C@H](C)[C@@H](c3cc(OC)c4c(c3)OCO4)[C@H](C1=O)[C@@H]2O [CINERIN B] | 13.9% | <30% | <30% | <30% | 20.9% | <30% | 19.5% | <30% | <30% | 1.5 µM |
| C=CCC1=C[C@@]2(OC)C(=CC1=O)O[C@H](c1ccc(OC)c(OC)c1)[C@H]2C [KADSURENONE] |  |  |  |  |  |  |  |  |  | 0.12 µM |
| C=CCC1=C[C@@]2(OC)C(=O)[C@](OC)([C@H](c3cc(OC)c4c(c3)OCO4)[C@H]2C)[C@H]1O [CINERIN D] | 1.3% | <30% | <30% | <30% | 6.2% | <30% | 7.3% | <30% | <30% | 6.6 µM |
| C=CCC1=C[C@]2(OC)[C@H](C)[C@@H](c3cc(OC)c4c(c3)OCO4)[C@](OC)(C1=O)[C@H]2O [CINERIN C] | 43.8% | <30% | <30% | <30% | 49.8% | <30% | 49.4% | <30% | <30% | 1.1 µM |

Reference: ChEMBL document CHEMBL1152390, “Macrophyllin-type bicyclo[3.2.1]octanoid neolignans from the leaves of Pleurothyrium cinereum” (J Nat Prod, 2009)
